# Assay results: paper PMC10451668, “Natural Acetogenins, Chatenaytrienins-1, -2, -3 and -4, Mitochondrial Potential Uncouplers and Autophagy Inducers—Promising Anticancer Agents” (Antioxidants, 2023)
# Experiments:
# Format in all cases: cell-based, human
# Jurkat cells [1] = assay: Assessment of autophagy (anti-LC3/FITC, flow cytometry); conditions: 0.5 CC50, 48 h
# Source text: Autophagy is involved in various physiological processes and its changes are associated with the pathogenesis of diseases such as neurodegenerative diseases, cardiovascular complications, cancer, and infectious diseases, as well as with physiological processes such as innate and specific immunity, pathogen clearance, lymphocyte selection, antigen presentation, and production of immunoglobulins. Therefore, the determination of LC3 protein inside autophagosomes without the cytosolic form of LC3-I at the stage of selective cell permeability was measured using flow cytometry. Thus, using the FlowCellect™ LC3-GFP Reporter Autophagy Assay Kit (FCCH100170 and FCCH100181), flow cytometry allowed for a rapid assay that could be combined with other phenotypic and functional markers to characterize different cell populations.
# Canonical autophagy is associated with the conversion of LC3 protein (an autophagosome marker) from the cytoplasmic form of LC3I to the lipid-bound form of LC3II, which is associated with the membranes of maturing autophagosomes. The autophagy process can be conveniently classified into several stages. First, induction and translocation of the cytoplasmic LC3 protein occur due to the influence of external stimuli (adverse environmental influences)—the process is initiated by external/internal stimuli (for example, nutrient depletion or hypoxia). Then, the formation of autophagosomes begins, which are double-membrane vesicles that include the LC3 protein. This protein regulates the fusion of autophagosomes and lysosomes. It exists in two fractions—cytoplasmic LC3-I and LC3-II, isolated in the autophagosomal membrane. The LC3-II protein fraction was specified in our work, as its detection is a reliable indicator of the processes of autophagy in the cell.
# Jurkat cells [2] = assay: Detection of mitodamage: mitochondrial membrane potential and apoptosis (MitoSense Red, annexin V, 7-AAD); conditions: compound at CC50, 4 h
# Source text: The use of reagents MitoSense Red, annexin V, and 7-AAD in the Millipore FlowCellect™ MitoDamage Kit allowed us to gain information on early, mid, and late apoptosis with one simple assay. […] After this time, the cells were dissociated using an accutase solution, stained, and analyzed using the NovoCyte Penteon Flow Cytometer System (Agilent, 5301 Stevens Creek Blvd., Santa Clara, CA, USA), according to the manufacturer’s protocols for the FlowCellect™ MitoDamage Kit and FlowCellect™ Oxidative Stress Characterization Kit (Merck).
# Detection of mitochondrial potential dissipation using MitoSense Red, annexin V, and 7-AAD provided a simultaneous measurement of three important parameters of the cell state within the same cell sample: the state of the mitochondrial potential (Δψ), detected by the membrane-penetrating MitoSense Red dye; the expression of phosphatidylserine on the cell surface of apoptotic cells, assessed by the binding of annexin V to externalized phosphatidylserine; and the binding of 7-AAD to DNA in cells in the late stages of apoptosis. Multiparametric evaluation of these indicators of cell viability made it possible to determine the correlation and relationship between oxidation dissipation and phosphorylation with apoptosis.
# Jurkat tumor cell line = assay: Assessment of cytochrome c loss (FlowCellect Cytochrome c Kit); conditions: compound at CC50, incubation 3 h, anti-cytochrome c-FITC
# Method: Quantification of cytochrome c release from mitochondria in apoptotic cells was presented to detect the mitochondrial pathway of apoptosis in cells using flow cytometry with the FlowCellect™ Cytochrome c Kit (FCCH100110). For this, cells were treated with FITC-conjugated antibodies against cytochrome c and control anti-IgG1-FITC, together with the use of an optimized fixation procedure, permeabilization, and blocking buffer (Luminex®, USA). […] Jurkat cells were incubated for 4 h with the synthesized substances at a concentration corresponding to their 24-h CC50 in a culture plate and assessed using the NovoCyte Penteon Flow Cytometer System (Agilent, 5301 Stevens Creek Blvd., Santa Clara, CA, USA). The obtained data were processed using NovoExpress® software (ACEA).
compound,measurement,setting,value
"CCCCCCCCCC/C=C\CC/C=C\CC/C=C\CCCCCCCCCCC1=C[C@H](C)OC1=O [compound 1, chatenaytrienin-1]",cells with autophagy (gate M3-2),Jurkat cells [1],96.26%
same,cells in late apoptosis (stained with 7-AAD),Jurkat cells [2]; Jurkat,15.11%
same,Jurkat tumor cells with the Δψ dissipation phenomenon,Jurkat cells [2]; MitoSense Red,83.69%
same,cells with cytochrome c released into the cytoplasm (Negative gate),Jurkat tumor cell line,61.67%
